{
  "source": "patent US20250304990A1",
  "about": "“HERBICIDE RESISTANCE” (SYNGENTA CROP PROTECTION AG, priority 2021, published 2025)",
  "key": {"Cf-496-6": {"tested_on": "Cf-496-6", "assay": "Dose response test, growth in 96-well plates", "format": "cell-based, Chlorella fusca", "conditions": "strain Cf-496-6; no growth, visual inspection"}, "WT tobacco [1]": {"tested_on": "WT tobacco", "assay": "Herbicide damage score after spraying, Example 4", "format": "in vivo", "conditions": "T1 B5u 500 gai/ha; WT tobacco (Example 4); per plant", "method": "(§1) In order to determine if the newly discovered mutations detailed in Example 1 confer resistance to HST inhibiting compounds when expressed in plants, GM tobacco lines were produced and tested with HST inhibiting compounds. Transgenic tobacco plants expressing the Oryza sativa HST gene with and without mutations were tested.\n(§2) Populations of transgenic tobacco comprising 20-30 transgenic events per plant transformation constructs were generated as described in Example 2. These lines were clonally propagated and 1 clone per event was sprayed with 500, 100 or 50 g ai/ha of compound 1+0.2% (w/v) Genapol X080 with a spray volume of 200 L/Ha. (“g ai/ha” refers to grams of active compound per hectare).\n(§3) Herbicidal damage was visually assessed across the population and a herbicide damage score given at 7 and 14 days. A score of 0 indicates no visible damage or stunting whereas a score of 100 indicates a complete death of the plant. 20 transgenic events (i.e. individual transgenic plants) from each GM tobacco line were transplanted to soil 1 week prior to spraying with HST inhibiting compounds. WT tobacco was included as a control. The mutated genes are identified in Table 16 below.\n(§4) The values in Tables 17 to 23 below refer to percentage of damage to the tested plants and show the damage scores for 20 populations of plants expressing either Oryza sativa WT HST gene (SEQ ID NO. 18), the Oryza sativa HST mutated gene according to SEQ ID NO. 47, the Oryza sativa HST mutated gene according to SEQ ID NO. 48, the Oryza sativa HST mutated gene according to SEQ ID NO. 49, the Oryza sativa HST mutated gene according to SEQ ID NO. 50, or the Oryza sativa HST mutated gene according to SEQ ID NO. 51. A control population of wild-type Samsun tobacco was also assessed for herbicide damage. […] However the mutated versions of the HST gene carrying the F262I, V263A, […], or F266L mutations (SEQ ID NOs: 47, 48, 50 or 51) clearly display increased tolerance."}, "[2]": {"tested_on": "D4425 (F262I mutant Oryza sativa HST) containing tobacco plant", "assay": "Herbicide damage score after spraying, Example 4", "format": "in vivo", "conditions": "T1 B5u 500 gai/ha, averaged across transgenic population", "method": "as §1, §2, §3, §4"}, "[3]": {"tested_on": "D4427 (T264N mutant Oryza sativa HST) containing tobacco plant", "assay": "Herbicide damage score after spraying, Example 4", "format": "in vivo", "conditions": "T1 B5u 500 gai/ha", "method": "as §1, §2, §3, §4"}, "[4]": {"tested_on": "D4424 (WT Oryza sativa HST) containing tobacco plant", "assay": "Herbicide damage score after spraying, Example 4", "format": "in vivo", "method": "as §1, §2, §3, §4"}, "[5]": {"tested_on": "D4429 (F266L mutant Oryza sativa HST) containing tobacco plant", "assay": "Herbicide damage score after spraying, Example 4", "format": "in vivo", "conditions": "T1 B5u 500 gai/ha, averaged across transgenic population", "method": "as §1, §2, §3, §4"}, "[6]": {"tested_on": "D4426 (V263A mutant Oryza sativa HST) containing tobacco plant", "assay": "Herbicide damage score after spraying, Example 4", "format": "in vivo", "conditions": "T1 B5u 500 gai/ha; D4426 V263A; averaged across transgenic population", "method": "as §1, §2, §3, §4"}, "[7]": {"tested_on": "D4428 (F266I mutant Oryza sativa HST) containing tobacco plant", "assay": "Herbicide damage score after spraying, Example 4", "format": "in vivo", "conditions": "T1 B5u 500 gai/ha, averaged across transgenic population", "method": "as §1, §2, §3, §4"}, "Cf-496-75": {"tested_on": "Cf-496-75", "assay": "Dose response test, growth in 96-well plates", "format": "cell-based, Chlorella fusca", "conditions": "strain Cf-496-75; no growth, visual inspection"}, "WT tobacco [8]": {"tested_on": "WT tobacco", "assay": "Herbicide damage score after spraying, Example 3", "format": "in vivo", "conditions": "T1 B5u 500 gai/ha; WT tobacco control; per plant", "method": "as §1, with “lines are to be” for “lines were”, “the Arabidopsis” for “the Oryza sativa”\n(§5) Populations of transgenic tobacco comprising 20-30 transgenic events per plant transformation constructs were generated as described in Example 2. These lines were clonally propagated and 1 clone per event was sprayed with 500, 100 or 50 g ai/ha of compound 1+0.2% Genapol X080 with a spray volume of 200 L/Ha (“g ai/ha” refers to grams of active compound per hectare).\nas §3, with “control.” for “control. The mutated genes are identified in Table 16 below.”\n(§6) The values in Tables 8 to 14 below refer to percentage of damage to the tested plants and show the damage scores for 20 populations of plants expressing either Arabidopsis WT HST gene (SEQ ID NO. 14), the Arabidopsis HST mutated gene according to SEQ ID NO. 27, the Arabidopsis HST mutated gene according to SEQ ID NO. 28, the Arabidopsis HST mutated gene according to SEQ ID NO. 29, the Arabidopsis HST mutated gene according to SEQ ID NO. 30, or the Arabidopsis HST mutated gene according to SEQ ID NO. 31. A control population of wild-type Samsun tobacco was also assessed for herbicide damage. […] However the mutated versions of the HST gene carrying the F276I, V277A, F280I or F280L mutations (SEQ ID NOs: 27, 28, 30 or 31) clearly display increased tolerance."}, "[9]": {"tested_on": "D4291 (WT Arabidopsis thaliana HST) containing tobacco plant", "assay": "Herbicide damage score after spraying, Example 3", "format": "in vivo", "method": "as §1, with “lines are to be” for “lines were”, “the Arabidopsis” for “the Oryza sativa”\nas §5\nas §3, with “control.” for “control. The mutated genes are identified in Table 16 below.”\nas §6"}, "Cf-496-47": {"tested_on": "Cf-496-47", "assay": "Dose response test, growth in 96-well plates", "format": "cell-based, Chlorella fusca", "conditions": "strain Cf-496-47; no growth, visual inspection"}, "Cf-496-2": {"tested_on": "Cf-496-2", "assay": "Dose response test, growth in 96-well plates", "format": "cell-based, Chlorella fusca", "conditions": "strain Cf-496-2; no growth, visual inspection"}},
  "note": "Where “and” joins values, the source holds several entries; their conditions need not be identical. Identical values can stand only once.",
  "data": [
    {"smiles": "Cc1nn(C)c(=O)c(-c2c(F)ccc(Cl)c2CCc2ccc(C(F)(F)F)cc2)c1OC(=O)C(C)C", "note": "[B5u, [5-[3-chloro-6-fluoro-2-[2-[4-(trifluoromethyl)phenyl]ethyl]phenyl]-1,3-dimethyl-6-oxo-pyridazin-4-yl]2-methylpropanoate]", "values": [
      {"measurement": "LD (lethal dose)", "setting": "Cf-496-6", "value": ">100", "unit": "ppm"},
      {"measurement": "percentage of damage", "setting": "WT tobacco [1]", "value": "98% and 97% and 96% and 95%"},
      {"measurement": "Average percentage damage", "setting": "[2]", "value": 38, "unit": "%"},
      {"measurement": "percentage of damage", "setting": "[3]; D4427 OsHST V003 T264N, per event", "value": 50, "unit": "%"},
      {"measurement": "Average percentage damage", "setting": "[3]; D4427 T264N, averaged across transgenic population", "value": 67, "unit": "%"},
      {"measurement": "Average percentage damage", "setting": "[4]; T1 B5u 500 gai/ha, D4424, mutation n.a., averaged across transgenic population", "value": 31, "unit": "%"},
      {"measurement": "tolerance to herbicide", "setting": "[4]; overexpression of Oryza sativa HST gene (SEQ ID NO.18) in tobacco", "value": "does not increase tolerance"},
      {"measurement": "Average percentage damage", "setting": "[5]", "value": 40, "unit": "%"},
      {"measurement": "Average percentage damage", "setting": "[6]", "value": 24, "unit": "%"},
      {"measurement": "Average percentage damage", "setting": "[7]", "value": 56, "unit": "%"},
      {"measurement": "LD (lethal dose)", "setting": "Cf-496-75", "value": 6.25, "unit": "ppm"},
      {"measurement": "percentage of damage", "setting": "WT tobacco [8]", "value": "95% and 90%"},
      {"measurement": "Average percentage damage", "setting": "[9]; T1 B5u 500 gai/ha, D4291, mutation n.a., averaged across transgenic population", "value": 55, "unit": "%"},
      {"measurement": "tolerance to herbicide", "setting": "[9]; overexpression of Arabidopsis HST gene (SEQ ID NO.14) in tobacco", "value": "does not increase tolerance"},
      {"measurement": "LD (lethal dose)", "setting": "Cf-496-47", "value": ">100", "unit": "ppm"},
      {"measurement": "LD (lethal dose)", "setting": "Cf-496-2", "value": 6.25, "unit": "ppm"}
    ]}
  ]
}
